One data set deals with OVCAR 3 Cancer cells. Briefly: Nanoformulated quercetin in mice with implanted tumor. The settings on record: mouse, in vivo. Here is the method: Animals—Immunodeficient, female athymic mice aged 5-6 weeks and weighing between 18 and 20 g were purchased from Taconic Biosciences (Albany, NY). All animal studies were conducted at the animal facility of the Veteran Affairs Medical Center, Albany, NY in accordance with and approved by institutional guidelines for humane animal treatment and according to the current guidelines. Mice were maintained under specific pathogen-free conditions and housed under controlled conditions of temperature (20-24° C.) and humidity (60-70%) and 12 h light/dark cycle with ad libitum access to water and food. Mice were allowed to acclimatize for 5 d prior to the start of study.
Treatment—OVCAR 3 Cancer cells (1×10^6) were implanted subcutaneously in right flank of each animal. In the first set of experiments, control, free Quercetin (3 mg/kg), NPS-quercetin(3 mg/kg), and FA-NPs-quercetin (3 mg/kg) were injected subcutaneously to the mice everyday (for 14 days). The control was PBS, after humane sacrifice of animals at 14 days, tumors were harvested and amount of QC was measured.

For data set [1] the following is noted: cited from earlier work.
The test system of another data set is glioma cells. The settings on record: cited from earlier work.

This is an account of results in patent US12213958B2, “Compositions, methods, systems and/or kits for preventing and/or treating neoplasms” (Research Cancer Institute of America, priority 2017, dated 2025).

In the case of `O=c1c(O)c(-c2ccc(O)c(O)c2)oc2cc(O)cc(O)c12` [Free QC, quercetin], the “adverse toxic effect on the health of tumor bearing mice” value in the data set with OVCAR 3 Cancer cells was “does not have any adverse toxic effect”.

Regarding `O=c1c(O)c(-c2ccc(O)c(O)c2)oc2cc(O)cc(O)c12` [Quercetin, quercetin], the water solubility result in data set [1] was “not water soluble”. In addition, in the data set with glioma cells, the angiogenesis entry is “suppression of angiogenesis”.
